ChEMBL document CHEMBL1127045 (J Med Chem, 1993)
pKi: −log10 of the molar value.

Legend:
D(2) dopamine receptor = D(2) dopamine receptor (Rattus norvegicus, UniProt P61169); assay: Binding affinity against dopamine receptor D2 from rat corpus striatum by using radioligand [3H]sulpiride
[1] = molecular target: 5-HT2A receptor (Rattus norvegicus); assay: Binding affinity against 5-hydroxytryptamine 2 receptor from rat cortical synaptosomal membrane using radioligand [3H]ketanserin.
[2] = molecular target: Serotonin 2 (5-HT2) receptor (Mus musculus) (UniProt Q02152+P34968+P35363); assay: Effective dose through peroral route for in vivo inhibition against 5-hydroxytryptamine 2 receptor in male CF-1 mice by using radioligand [3H]ketanserin; format: organism-based
Chain of Serotonin 2 (5-HT2) receptor (Mus musculus) (P34968 whole entry, looked up): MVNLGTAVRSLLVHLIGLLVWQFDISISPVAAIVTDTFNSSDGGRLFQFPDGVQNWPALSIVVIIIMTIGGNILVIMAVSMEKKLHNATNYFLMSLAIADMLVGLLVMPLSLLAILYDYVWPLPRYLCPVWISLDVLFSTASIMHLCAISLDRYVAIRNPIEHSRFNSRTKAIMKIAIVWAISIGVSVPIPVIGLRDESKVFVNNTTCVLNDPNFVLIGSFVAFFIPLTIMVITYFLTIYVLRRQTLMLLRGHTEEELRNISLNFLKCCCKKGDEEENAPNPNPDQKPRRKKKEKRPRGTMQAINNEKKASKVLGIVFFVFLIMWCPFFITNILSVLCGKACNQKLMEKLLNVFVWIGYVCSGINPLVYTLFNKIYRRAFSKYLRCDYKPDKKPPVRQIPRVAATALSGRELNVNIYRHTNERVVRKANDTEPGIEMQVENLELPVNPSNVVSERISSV
Chain of Serotonin 2 (5-HT2) receptor (Mus musculus) (P35363 whole entry, looked up): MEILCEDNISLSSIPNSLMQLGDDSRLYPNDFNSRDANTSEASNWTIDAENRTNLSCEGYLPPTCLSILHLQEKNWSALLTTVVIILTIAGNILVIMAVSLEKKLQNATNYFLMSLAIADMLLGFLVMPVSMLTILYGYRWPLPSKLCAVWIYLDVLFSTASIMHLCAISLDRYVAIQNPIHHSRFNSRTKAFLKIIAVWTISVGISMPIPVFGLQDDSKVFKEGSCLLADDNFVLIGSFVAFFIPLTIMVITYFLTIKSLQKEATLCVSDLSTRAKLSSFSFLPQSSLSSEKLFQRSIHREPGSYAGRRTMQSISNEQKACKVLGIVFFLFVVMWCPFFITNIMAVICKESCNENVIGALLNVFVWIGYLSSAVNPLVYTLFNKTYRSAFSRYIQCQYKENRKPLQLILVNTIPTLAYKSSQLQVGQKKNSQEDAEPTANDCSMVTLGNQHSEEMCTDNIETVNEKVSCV
Chain of Serotonin 2 (5-HT2) receptor (Mus musculus) (Q02152 whole entry, looked up): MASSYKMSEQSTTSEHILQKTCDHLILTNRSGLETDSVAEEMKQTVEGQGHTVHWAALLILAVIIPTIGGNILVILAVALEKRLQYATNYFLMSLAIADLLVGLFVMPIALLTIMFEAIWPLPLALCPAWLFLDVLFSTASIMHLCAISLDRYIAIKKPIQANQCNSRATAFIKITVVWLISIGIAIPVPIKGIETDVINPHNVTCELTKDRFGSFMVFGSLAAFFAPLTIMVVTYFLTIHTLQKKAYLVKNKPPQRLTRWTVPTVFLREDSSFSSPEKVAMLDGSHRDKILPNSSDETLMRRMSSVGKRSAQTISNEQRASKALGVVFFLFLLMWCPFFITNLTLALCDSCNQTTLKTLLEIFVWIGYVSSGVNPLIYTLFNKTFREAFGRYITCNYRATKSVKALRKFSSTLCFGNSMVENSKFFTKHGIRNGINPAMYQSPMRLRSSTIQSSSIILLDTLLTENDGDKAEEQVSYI

Chain of D(2) dopamine receptor (P61169 whole entry): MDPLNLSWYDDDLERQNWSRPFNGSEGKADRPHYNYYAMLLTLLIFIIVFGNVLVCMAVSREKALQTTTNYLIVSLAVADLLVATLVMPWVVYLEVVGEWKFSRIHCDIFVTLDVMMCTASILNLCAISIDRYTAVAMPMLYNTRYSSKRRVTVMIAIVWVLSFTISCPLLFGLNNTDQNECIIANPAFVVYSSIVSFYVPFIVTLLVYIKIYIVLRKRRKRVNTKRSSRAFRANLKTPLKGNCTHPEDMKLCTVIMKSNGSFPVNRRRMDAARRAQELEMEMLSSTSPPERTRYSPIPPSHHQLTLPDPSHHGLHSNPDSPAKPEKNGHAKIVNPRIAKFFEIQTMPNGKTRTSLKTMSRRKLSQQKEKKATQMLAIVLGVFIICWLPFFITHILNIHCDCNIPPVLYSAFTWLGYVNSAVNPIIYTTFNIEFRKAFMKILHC

`O=C(CCCN1C2CCC1c1c([nH]c3ccccc13)C2)c1cccs1` (stereo unspecified) was tested, and the pKi (D(2) dopamine receptor) was 6.26.

`c1ccc2sc(CCCCN3C4CCC3c3c([nH]c5ccccc35)C4)cc2c1` (stereo unspecified) gave a Ki [1] of 610 nM and a pKi (D(2) dopamine receptor) of 6.38.

With `O=C(CCCN1C2CCC1c1c(n(-c3ccccc3)c3ccccc13)C2)c1ccc(F)cc1` (stereo unspecified) the Ki [1] was 330 nM.

In the case of `c1ccc2c(c1)ccn2CCCCN1C2CCC1c1c([nH]c3ccccc13)C2` (stereo unspecified), the Ki [1] was 284 nM and the pKi (D(2) dopamine receptor) was 6.20.

`O=C(CCCCN1C2CCC1c1c([nH]c3ccccc13)C2)c1ccc(F)cc1` (stereo unspecified) was tested, and the ED50 [2] was 7.32 mg/kg.

With `Cc1nc2sccn2c(=O)c1CCN1CCC(=C(c2ccc(F)cc2)c2ccc(F)cc2)CC1` [RITANSERIN] the ED50 [2] was 0.14 mg/kg and the pKi (D(2) dopamine receptor) was 7.03.

`O=C1CC2CCC(C1)N2CCCC(=O)c1ccc(F)cc1` gave a Ki [1] of 533 nM and a pKi (D(2) dopamine receptor) of 8.89.

Molecule `c1ccc(CCCCN2C3CCCC2c2c([nH]c4ccccc24)C3)cc1` (stereo unspecified) has a Ki [1] of 103 nM and a pKi (D(2) dopamine receptor) of 6.17.

In the case of `c1ccc2c(CCCCN3C4CCC3c3c([nH]c5ccccc35)C4)c[nH]c2c1` (stereo unspecified), the Ki [1] was 329 nM and the pKi (D(2) dopamine receptor) was 6.07.

`O=C(CCCCN1C2CCCC1c1c([nH]c3ccccc13)C2)c1ccccc1` (stereo unspecified) gave a Ki [1] of 20.9 nM and a pKi (D(2) dopamine receptor) of 7.36.

For `O=C(CCCN1C2CCC1c1c([nH]c3ccccc13)C2)c1ccccc1` (stereo unspecified), the inhibition [2] was 12%, the Ki [1] was 6.55 nM and the pKi (D(2) dopamine receptor) was 6.27.

Molecule `O=C1c2ccccc2C(=O)N1CCCCN1C2CCC1c1c([nH]c3ccccc13)C2` (stereo unspecified) has a Ki [1] of 879 nM and a pKi (D(2) dopamine receptor) of 5.58.

For `O=C(CCCCN1C2CCC1c1c([nH]c3ccc(F)cc13)C2)c1ccccc1` (stereo unspecified), the ED50 [2] was 0.65 mg/kg, the Ki [1] was 2.98 nM and the pKi (D(2) dopamine receptor) was 8.56.

`O=S1(=O)c2cccc3cccc(c23)N1CCCCN1C2CCC1c1c([nH]c3ccc(F)cc13)C2` (stereo unspecified) was tested, and the Ki [1] was 1245 nM and the pKi (D(2) dopamine receptor) was 6.00.

Work on `Cn1c2c(c3ccccc31)C1CCC(C2)N1CCCC(=O)c1ccc(F)cc1` (stereo unspecified) yielded a Ki [1] of 2.83 nM and a pKi (D(2) dopamine receptor) of 6.54.

`O=C(CCCN1C2CCC1c1c([nH]c3ccc(F)cc13)C2)c1ccc(F)cc1` (stereo unspecified) showed an ED50 [2] of 41.1 mg/kg.

Molecule `O=C(CCCN1C2CCC1c1c([nH]c3ccc(F)cc13)C2)c1ccco1` (stereo unspecified) has a Ki [1] of 264 nM and a pKi (D(2) dopamine receptor) of 6.19.

For `O=C(CCCN1C2CCC1c1c([nH]c3ccccc13)C2)c1ccc(F)cc1` (stereo unspecified), the ED50 [2] was 20.9 mg/kg and the pKi (D(2) dopamine receptor) was 6.56.

`Fc1ccc2c(CCCN3C4CCCC3c3c([nH]c5ccc(F)cc35)C4)noc2c1` (stereo unspecified) was tested, and the Ki [1] was 13.4 nM and the pKi (D(2) dopamine receptor) was 6.61.

`O=C(CCCCN1C2CCC1c1c([nH]c3ccc(F)cc13)C2)c1ccc(F)cc1` (stereo unspecified) gave a pKi (D(2) dopamine receptor) of 7.47.

For `Fc1ccc2[nH]c3c(c2c1)C1CCCC(C3)N1CCCCc1ccccc1` (stereo unspecified), the Ki [1] was 172 nM.

Molecule `O=C(CCCCN1C2CCCC1c1c([nH]c3ccc(F)cc13)C2)c1ccccc1` (stereo unspecified) has a Ki [1] of 59.8 nM and a pKi (D(2) dopamine receptor) of 7.14.

For `O=C(CCCN1C2CCCC1c1c([nH]c3ccccc13)C2)c1ccc(F)cc1` (stereo unspecified), the ED50 [2] was 16.3 mg/kg and the Ki [1] was 0.85 nM.

With `Fc1ccc2c(CCCCN3C4CCCC3c3c([nH]c5cccc(F)c35)C4)noc2c1` (stereo unspecified) the Ki [1] was 133 nM and the pKi (D(2) dopamine receptor) was 6.88.

Work on `O=C(CCCN1C2CCCC1c1c([nH]c3ccc(F)cc13)C2)c1ccc(F)cc1` (stereo unspecified) yielded an ED50 [2] of 5.89 mg/kg.

Molecule `Fc1ccc(CCCCN2C3CCCC2c2c([nH]c4ccccc24)C3)cc1` (stereo unspecified) has a Ki [1] of 24.5 nM and a pKi (D(2) dopamine receptor) of 6.01.

`Fc1ccc(CCCCN2C3CCCC2c2c([nH]c4ccc(F)cc24)C3)cc1` (stereo unspecified) gave a Ki [1] of 143 nM and a pKi (D(2) dopamine receptor) of 5.71.

`c1ccc2c3c([nH]c2c1)CC1CCC3N1` (stereo unspecified) gave a pKi (D(2) dopamine receptor) of under 5.00.

`c1ccc2c(CCCN3C4CCC3c3c([nH]c5ccccc35)C4)c[nH]c2c1` (stereo unspecified) gave a pKi (D(2) dopamine receptor) of 5.94.
